# Laboratory results as given in doi:10.1101/2025.10.14.682402v1 (biorxiv, 2025).
# Legend:
# ULK1 (NanoBRET) = target: T1, ULK1 (NanoBRET) (Homo sapiens, UniProt O75385); test: NanoBRET cellular target engagement; format: cell-based
# T1 sequence (O75385 1-1050): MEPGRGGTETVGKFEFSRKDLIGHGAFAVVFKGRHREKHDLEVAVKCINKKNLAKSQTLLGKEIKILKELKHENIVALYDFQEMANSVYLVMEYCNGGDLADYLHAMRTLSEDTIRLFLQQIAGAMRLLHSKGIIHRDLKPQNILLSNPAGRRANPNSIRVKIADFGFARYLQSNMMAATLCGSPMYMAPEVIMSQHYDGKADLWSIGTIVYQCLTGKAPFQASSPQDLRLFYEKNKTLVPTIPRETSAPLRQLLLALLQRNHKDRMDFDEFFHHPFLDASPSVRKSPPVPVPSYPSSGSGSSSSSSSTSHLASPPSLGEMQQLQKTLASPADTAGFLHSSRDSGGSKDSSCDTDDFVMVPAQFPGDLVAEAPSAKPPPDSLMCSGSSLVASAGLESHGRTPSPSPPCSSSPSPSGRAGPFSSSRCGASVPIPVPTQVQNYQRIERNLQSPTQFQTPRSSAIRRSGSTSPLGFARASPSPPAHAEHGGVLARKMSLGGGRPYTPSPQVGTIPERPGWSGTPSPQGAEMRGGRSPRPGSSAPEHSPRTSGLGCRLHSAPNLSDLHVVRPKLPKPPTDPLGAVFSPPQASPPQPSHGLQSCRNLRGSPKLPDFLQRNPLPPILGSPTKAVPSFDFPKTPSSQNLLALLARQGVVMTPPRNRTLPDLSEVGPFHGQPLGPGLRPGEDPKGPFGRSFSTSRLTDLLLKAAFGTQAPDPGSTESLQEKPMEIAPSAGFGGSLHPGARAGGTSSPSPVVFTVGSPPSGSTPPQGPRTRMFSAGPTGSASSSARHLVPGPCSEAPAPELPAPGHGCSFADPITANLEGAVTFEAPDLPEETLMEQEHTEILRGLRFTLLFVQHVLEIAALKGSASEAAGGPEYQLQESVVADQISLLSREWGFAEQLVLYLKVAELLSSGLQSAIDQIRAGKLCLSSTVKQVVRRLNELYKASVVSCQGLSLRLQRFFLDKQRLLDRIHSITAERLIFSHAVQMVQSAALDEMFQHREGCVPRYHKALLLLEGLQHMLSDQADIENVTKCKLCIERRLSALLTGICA
# kinase domain of ULK2 = target: T2, kinase domain of ULK2 (Homo sapiens, UniProt Q8IYT8); conditions: binder
# T2 sequence (Q8IYT8 1-276 limits assumed): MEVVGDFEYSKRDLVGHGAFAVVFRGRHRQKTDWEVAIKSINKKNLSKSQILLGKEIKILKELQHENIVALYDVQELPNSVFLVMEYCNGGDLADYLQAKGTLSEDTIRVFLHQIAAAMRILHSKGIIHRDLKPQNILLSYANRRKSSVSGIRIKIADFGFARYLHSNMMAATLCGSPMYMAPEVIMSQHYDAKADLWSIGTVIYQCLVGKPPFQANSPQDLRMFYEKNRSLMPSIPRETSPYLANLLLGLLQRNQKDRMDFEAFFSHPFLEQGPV
# kinase domain of ULK1 = target: T3, kinase domain of ULK1 (Homo sapiens, UniProt O75385); conditions: binder
# T3 sequence (O75385 1-283 limits assumed): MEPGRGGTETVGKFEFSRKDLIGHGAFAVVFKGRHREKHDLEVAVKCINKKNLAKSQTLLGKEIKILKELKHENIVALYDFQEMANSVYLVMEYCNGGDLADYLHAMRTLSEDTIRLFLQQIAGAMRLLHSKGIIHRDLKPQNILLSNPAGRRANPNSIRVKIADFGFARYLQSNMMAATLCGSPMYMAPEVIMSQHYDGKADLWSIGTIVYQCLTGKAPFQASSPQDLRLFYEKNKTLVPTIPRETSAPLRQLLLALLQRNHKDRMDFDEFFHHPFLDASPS
# ULK1 [1] = target: T4, ULK1 (Homo sapiens, UniProt O75385); test: ADP-Glo kinase assay; format: biochemical
# T4 sequence (O75385 1-1050): T1 sequence (O75385 1-1050)
# ULK2 [2] = target: T5, ULK2 (Homo sapiens, UniProt Q8IYT8); test: ADP-Glo kinase assay; format: biochemical
# T5 sequence (Q8IYT8 1-1036): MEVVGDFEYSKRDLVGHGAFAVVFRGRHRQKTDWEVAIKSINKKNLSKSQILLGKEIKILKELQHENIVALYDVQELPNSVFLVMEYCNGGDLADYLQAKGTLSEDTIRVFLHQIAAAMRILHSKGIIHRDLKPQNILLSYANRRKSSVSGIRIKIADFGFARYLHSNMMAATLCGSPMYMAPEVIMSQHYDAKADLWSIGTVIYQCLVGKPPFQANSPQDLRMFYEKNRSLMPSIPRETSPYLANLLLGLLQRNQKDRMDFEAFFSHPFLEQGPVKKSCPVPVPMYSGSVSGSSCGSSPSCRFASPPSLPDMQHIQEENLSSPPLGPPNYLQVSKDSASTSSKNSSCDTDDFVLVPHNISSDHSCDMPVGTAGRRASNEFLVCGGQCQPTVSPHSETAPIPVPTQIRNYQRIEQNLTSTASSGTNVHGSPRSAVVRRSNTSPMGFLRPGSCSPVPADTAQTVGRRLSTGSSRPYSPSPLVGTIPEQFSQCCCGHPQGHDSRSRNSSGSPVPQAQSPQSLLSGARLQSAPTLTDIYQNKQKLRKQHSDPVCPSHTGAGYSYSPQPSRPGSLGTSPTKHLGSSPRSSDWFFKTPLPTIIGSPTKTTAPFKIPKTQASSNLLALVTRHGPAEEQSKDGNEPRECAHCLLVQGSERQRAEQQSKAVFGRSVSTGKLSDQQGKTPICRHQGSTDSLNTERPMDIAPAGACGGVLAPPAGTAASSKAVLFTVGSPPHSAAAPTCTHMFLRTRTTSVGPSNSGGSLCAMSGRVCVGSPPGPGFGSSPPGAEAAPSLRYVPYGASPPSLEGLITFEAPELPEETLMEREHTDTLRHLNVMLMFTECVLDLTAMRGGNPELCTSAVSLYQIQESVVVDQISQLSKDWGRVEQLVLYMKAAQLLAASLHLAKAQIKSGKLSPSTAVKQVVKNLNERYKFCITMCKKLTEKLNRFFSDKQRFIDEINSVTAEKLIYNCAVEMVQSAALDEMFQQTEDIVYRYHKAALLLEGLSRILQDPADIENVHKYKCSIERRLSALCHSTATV
# ULK2 [3] = target: T5, ULK2; test: biochemical
# ULK1 [4] = target: T4, ULK1; test: biochemical
Compound,IC50 (ULK1 (NanoBRET)) [nM],ULK2 PTS (ºC) (kinase domain of ULK2) [°C],ULK1 PTS (ºC) (kinase domain of ULK1) [°C],IC50 (ULK1 [1]) [nM],IC50 (ULK2 [2]) [nM],IC50 (ULK2 [3]) [nM],IC50 (ULK1 [4]) [nM]
"CNC(=O)c1ccccc1Nc1nc(Nc2cc(OC)c(OC)c(OC)c2)ncc1C(F)(F)F [6p, N-Methyl-2-(5-(trifluoromethyl)-2-(3,4,5-trimethoxyphenylamino)pyrimidin-4-ylamino)benzamide]",10,15.81 ± 0.06,16.50 ± 0.15,10,7,–,–
"CNC(=O)c1ccccc1Nc1nc(Nc2ccc3c(c2)CCC(=O)N3)ncc1Cl [6e, 2-(5-Chloro-2-(2-oxo-1,2,3,4-tetrahydroquinolin-6-ylamino)pyrimidin-4-ylamino)-N-methylbenzamide]",–,0.43 ± 0.34,0.15 ± 0.06,22,1440,–,–
"CNC(=O)c1ccccc1Nc1nc(Nc2ccc(N3CCOCC3)cc2OC)ncc1Cl [6a, 2-(5-Chloro-2-(2-methoxy-4-morpholinophenylamino)pyrimidin-4-ylamino)-N-methylbenzamide]",–,2.31 ± 0.09,3.65 ± 0.07,153,> 3000,–,–
"CNC(=O)c1ccccc1Nc1ccnc(Nc2cc(OC)c(OC)c(OC)c2)n1 [6q, N-Methyl-2-(2-(3,4,5-trimethoxyphenylamino)pyrimidin-4-ylamino)benzamide]",–,2.71 ± 0.09,5.18 ± 0.17,603,30000,> 3000,–
"CNC(=O)c1ccccc1Nc1nc(Nc2ccc3c(c2)CCC(=O)N3)ncc1C(F)(F)F [6d, N-Methyl-2-(2-(2-oxo-1,2,3,4-tetrahydroquinolin-6-ylamino)-5-(trifluoromethyl)pyrimidin-4-ylamino)benzamide]",103,3.73 ± 0.81,7.70 ± 0.43,–,172,–,8 ± 2
